# Assay results: ChEMBL document CHEMBL1201862, “PubChem BioAssay data set” (2004)
#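 Cells were grown in 96-well plates and exposed to each compound for 48 hours at five concentrations; endpoints were interpolated linearly between bracketing concentrations, or set to the highest concentration if not reached. GI50 = concentration required for 50% inhibition of growth.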 The source made the active and inactive calls. Cut-off read from the data, not from the text of the source: active = GI50 up to about 1.1 µM and inactive = higher.
# Tests used:
# Assay in all cases: NCI anticancer screen, dose series, 48 h
# XF498 = tested on: XF498
# KM-20L2 = tested on: KM-20L2
# K562 = tested on: K562
# LOX IMVI = tested on: LOX IMVI
# SW-620 = tested on: SW-620
# SR = tested on: SR
# Malme-3M = tested on: Malme-3M
# UO-31 = tested on: UO-31
# CCRF-CEM = tested on: CCRF-CEM
# UACC-257 = tested on: UACC-257
# RPMI-8226 = tested on: RPMI-8226
# HL-60 = tested on: HL-60
# OVCAR-5 = tested on: OVCAR-5
# COLO 205 = tested on: COLO 205
# 786-0 = tested on: 786-0
# OVCAR-8 = tested on: OVCAR-8
# SK-MEL-2 = tested on: SK-MEL-2
# A498 = tested on: A498
# LXFL 529 = tested on: LXFL 529
# UACC-62 = tested on: UACC-62
# U-251 = tested on: U-251
# CAKI-1 = tested on: CAKI-1
# OVCAR-3 = tested on: OVCAR-3
# SF-268 = tested on: SF-268
# SK-MEL-5 = tested on: SK-MEL-5
# ACHN = tested on: ACHN
# SK-MEL-28 = tested on: SK-MEL-28
# A549 = tested on: A549
# NCI-H23 = tested on: NCI-H23
# SN12C = tested on: SN12C
# SNB-19 = tested on: SNB-19
# OVCAR-4 = tested on: OVCAR-4
# NCI-H522 = tested on: NCI-H522
# SF-539 = tested on: SF-539
# DLD-1 = tested on: DLD-1
# HCT-116 = tested on: HCT-116
# HOP-62 = tested on: HOP-62
# HCC 2998 = tested on: HCC 2998
# SNB-75 = tested on: SNB-75
# DMS-273 = tested on: DMS-273
# MOLT-4 = tested on: MOLT-4
# TK-10 = tested on: TK-10
# NCI-H226 = tested on: NCI-H226
# KM12 = tested on: KM12
# M14 = tested on: M14
# DMS-114 = tested on: DMS-114
# EKVX = tested on: EKVX
# NCI-H460 = tested on: NCI-H460
# HCT-15 = tested on: HCT-15
# HOP-92 = tested on: HOP-92
# M19-MEL = tested on: M19-MEL
# SNB-78 = tested on: SNB-78
# SF-295 = tested on: SF-295
smiles,measurement,setting,value
Oc1ccc(C2Oc3cc(O)cc4c3C2c2cc(O)cc3c2C(c2cc(O)cc5c2C4C(c2ccc(O)cc2)O5)C(c2ccc(O)cc2)O3)cc1 (stereo unspecified),GI50,XF498,5.51 µM (inactive)
same,GI50,KM-20L2,13.2 µM (inactive)
same,GI50,K562,7 µM (inactive)
same,GI50,LOX IMVI,7.05 µM (inactive)
same,GI50,SW-620,7.73 µM (inactive)
same,GI50,SR,6.35 µM (inactive)
same,GI50,Malme-3M,5.7 µM (inactive)
same,GI50,UO-31,8.24 µM (inactive)
same,GI50,CCRF-CEM,5.78 µM (inactive)
same,GI50,UACC-257,10.5 µM (inactive)
same,GI50,RPMI-8226,7.45 µM (inactive)
same,GI50,HL-60,0.834 µM (active)
same,GI50,OVCAR-5,> 25 µM (inactive)
same,GI50,COLO 205,> 25 µM (inactive)
same,GI50,786-0,14.2 µM (inactive)
same,GI50,OVCAR-8,6.61 µM (inactive)
same,GI50,SK-MEL-2,5.51 µM (inactive)
same,GI50,A498,> 25 µM (inactive)
same,GI50,LXFL 529,5.41 µM (inactive)
same,GI50,UACC-62,> 25 µM (inactive)
same,GI50,U-251,6.32 µM (inactive)
same,GI50,CAKI-1,> 25 µM (inactive)
same,GI50,OVCAR-3,7 µM (inactive)
same,GI50,SF-268,5.12 µM (inactive)
same,GI50,SK-MEL-5,10.9 µM (inactive)
same,GI50,ACHN,> 25 µM (inactive)
same,GI50,SK-MEL-28,5.28 µM (inactive)
same,GI50,A549,> 25 µM (inactive)
same,GI50,NCI-H23,6.11 µM (inactive)
same,GI50,SN12C,8.05 µM (inactive)
same,GI50,SNB-19,4.78 µM (inactive)
same,GI50,OVCAR-4,4.4 µM (inactive)
same,GI50,NCI-H522,6.55 µM (inactive)
same,GI50,SF-539,5.58 µM (inactive)
same,GI50,DLD-1,> 25 µM (inactive)
same,GI50,HCT-116,7.48 µM (inactive)
same,GI50,HOP-62,16.5 µM (inactive)
same,GI50,HCC 2998,8.15 µM (inactive)
same,GI50,SNB-75,3.19 µM (inactive)
same,GI50,DMS-273,8.07 µM (inactive)
same,GI50,MOLT-4,6.89 µM (inactive)
same,GI50,TK-10,> 25 µM (inactive)
same,GI50,NCI-H226,6.19 µM (inactive)
same,GI50,KM12,7.4 µM (inactive)
same,GI50,M14,> 25 µM (inactive)
same,GI50,DMS-114,7.11 µM (inactive)
same,GI50,EKVX,> 25 µM (inactive)
same,GI50,NCI-H460,12.6 µM (inactive)
same,GI50,HCT-15,> 25 µM
same,GI50,HOP-92,3.94 µM (inactive)
same,GI50,M19-MEL,10.4 µM (inactive)
CCN(CC)CCNc1ccc(CO)c2sc3ccccc3c(=O)c12 [HYCANTHONE],GI50,SNB-78,12.7 µM (inactive)
same,GI50,KM-20L2,5.37 µM (inactive)
same,GI50,SW-620,5.48 µM (inactive)
same,GI50,SR,3.18 µM (inactive)
same,GI50,UO-31,6.58 µM (inactive)
same,GI50,UACC-257,15.8 µM (inactive)
same,GI50,RPMI-8226,10.8 µM (inactive)
same,GI50,SF-295,7.14 µM (inactive)
same,GI50,OVCAR-5,12.5 µM (inactive)
same,GI50,OVCAR-8,6.37 µM (inactive)
same,GI50,A498,8.22 µM (inactive)
same,GI50,LXFL 529,12.7 µM (inactive)
same,GI50,UACC-62,19.5 µM (inactive)
same,GI50,U-251,10.5 µM (inactive)
same,GI50,CAKI-1,5.92 µM (inactive)
same,GI50,SF-268,8.89 µM (inactive)
same,GI50,SK-MEL-28,16.8 µM (inactive)
same,GI50,A549,6.85 µM (inactive)
same,GI50,NCI-H23,> 10 µM (inactive)
same,GI50,SNB-19,9.51 µM (inactive)
same,GI50,OVCAR-4,5.37 µM (inactive)
same,GI50,NCI-H522,4.04 µM (inactive)
same,GI50,SF-539,11.2 µM (inactive)
same,GI50,HCT-116,4.8 µM (inactive)
same,GI50,MOLT-4,2.79 µM (inactive)
same,GI50,NCI-H226,13.9 µM (inactive)
same,GI50,DMS-114,11.5 µM (inactive)
same,GI50,EKVX,13.7 µM (inactive)
same,GI50,NCI-H460,4.04 µM (inactive)
same,GI50,M19-MEL,13 µM (inactive)
